Test results: patent US10732172B1, “Methods, systems, and compositions for determining blood clot formation, and uses thereof” (President and Fellows of Harvard College, priority 2015, dated 2020)
Entries after “also recorded” stand apart in the source; their conditions may differ.

Tests used:
Assay type in all cases: cell-based, human
platelets [1] = experiment: Platelet coverage on TNF-α pretreated, fixed (chemopreserved) endothelium in microfluidic device, whole blood perfusion
Procedure: (§1) By way of example, a microfluidic device is fabricated using photolithography followed by soft lithography with polydimethysiloxane (“PDMS”). According to this example, six microfluidic devices are placed on a single PDMS mold of the size of a standard glass slide, e.g., 75×25 millimeters (“mm”). The microfluidic devices are first exposed to oxygen plasma for 30 seconds using, for example, a PE-100 benchtop plasma system from Plasma Etch. Then, the microfluidic devices are treated with 1% (3-aminopropyl)-trimethoxysilane (“APTMS”), from Sigma, in 100% anhydrous ethanol for ten minutes. After subsequent rinsing with 70% and 100% ethanol, the microfluidic devices are dried and type I collagen from rat tail, e.g., 100 micrograms/milliliter (“μg/ml) from Corning, is introduced in microchannels of the microfluidic devices.
The microfluidic devices are left overnight at 37° C. in a 5% carbon dioxide (“CO2”) incubator, after which they are rinsed with Endothelial Growth Medium-2 (“EGM-2”) from Lonza. Human Umbilical Vein Endothelial Cells (“HUVEC”) from a mixed donor, by Lonza, are kept in culture and suspended at 12.5 million cells/milliliter (“mL”) in EGM-2, after confluence. The suspension is introduced into the collagen-coated microchannels, after which the microfluidic devices are incubated upside down for 20 minutes. A fresh HUVEC suspension is then introduced in the microchannels, after which the microfluidic devices are incubated for eight hours to promote cell attachment across the channel. The microchannels are, then, rinsed with EGM-2, sometimes containing a freshly prepared solution of tumor necrosis factor (“TNF-α”), which is a recombinant from E. coli from Sigma. […]
(§2) Platelets are visualized using time-lapse fluorescence imaging (e.g., 20×, NA 0.4). A time series of a 10-frame panorama (e.g., 6 mm long×0.665 mm wide region of a microchannel), at a lapse of every 30 seconds is recorded. […]

platelets [2] = experiment: Light transmission aggregometry (LTA) with ADP or collagen as agonist; conditions: blood treated ex vivo with abciximab, all doses; ADP 10 μM or collagen 2 μg/mL
Procedure: The LTA is performed in accordance with manufacturer instructions. For example, the LTA uses adenosine diphosphate (“ADP”) 10 μM and collagen 2 μg/mL from Chrono-Log.
Blood from healthy donors was treated ex vivo with abciximab or used untreated. These samples as well as clinical blood samples from subjects were centrifuged at 290 g for 10 min (no brake applied) to collect platelet rich plasma (PRP). To obtain a reference solution for each sample, PRP was centrifuged at high speed to pellet platelets (1,000 g, 10 min) and collect platelet poor plasma (PPP). CaCl2 was added to each sample at a final concentration of 1 mM to recalcify plasma before each run. Cifuni et al. “CalDAG-GEFI and protein kinase C represent alternative pathways leading to activation of integrin alphaIIbeta3 in platelets.” Blood 112, 1696-1703 (2008). LTA has then been performed at 37° C. under magnetic stirring using a Chrono-Log Corporation instrument.

platelets [3] = experiment: Platelet coverage in collagen-coated microfluidic device, whole blood perfusion; conditions: blood with different doses of abciximab; shear 750 sec^-1
Procedure: as §1
500 microliters (“μL”) of whole blood are pipetted into a fluid reservoir fitted to one end of a microchannel. Platelets are labeled with human CD41-PE antibody (e.g., 10 μL/mL from Invitrogen) that is directly added to the blood samples and incubated at room temperature for 10 minutes. […]
as §2

abciximab
abciximab concentration at which optimal effects on platelet adhesion are observed (platelets [1]; fixed endothelium pretreated with TNF-α 5 ng/mL): ≥ 10 µg/mL
difference in platelet inhibition between 10 μg/ml and 100 μg/ml (platelets [1]; fixed endothelium pretreated with TNF-α 5 ng/ml): insignificant
platelet coverage (platelet adhesion) on fixed endothelium (platelets [1]; healthy donor whole blood with abciximab 0-100 μg/mL, endothelium pretreated with TNF-α 5 ng/mL then fixed, shear 750 s^-1): decreases with increase in abciximab drug concentration; also recorded: dose-dependent inhibition of platelet adhesion; also recorded: significant dose-dependent platelet inhibition
platelet aggregation by light transmission aggregometry (platelets [2]): no aggregation is observed; also recorded: virtually complete inhibition of platelet aggregation; also recorded: no platelet aggregability
platelet coverage on collagen-coated microfluidic device (platelets [3]): insignificant decrease in platelet adhesion and aggregation; also recorded: small suppressive effect on platelet adhesion; also recorded: poor sensitivity
